# Legend:
# [1] = The drug is tested on WLS-086 corresponding to human gut metagenome with ENA study accession number: PRJEB37062 and ENA sample accession number: ERS12561752 for biotransformation under anaerobic condition. The drug concentrations were measured over 9 timepoints collected between 0 and 24 hours of incubation by liquid-chromatography-coupled mass spectrometry (LC–MS); details: 2 µM
# [2] = human gut metagenome, 24 h, 2 µM
# [3] = human gut metagenome, 24 h, 2 µM; remark: listed apart in the source
# [4] = human gut metagenome, 24 h, 2 µM; remark: listed apart in the source
# [5] = The drug is tested on WLS-052 corresponding to human gut metagenome with ENA study accession number: PRJEB37062 and ENA sample accession number: ERS12561747 for biotransformation under anaerobic condition. The drug concentrations were measured over 9 timepoints collected between 0 and 24 hours of incubation by liquid-chromatography-coupled mass spectrometry (LC–MS); details: 2 µM
# [6] = The drug is tested on Z-003 corresponding to pig gut metagenome with ENA study accession number: PRJEB37062 and ENA sample accession number: ERS12561803 for biotransformation under anaerobic condition. The drug concentrations were measured over 9 timepoints collected between 0 and 24 hours of incubation by liquid-chromatography-coupled mass spectrometry (LC–MS); details: 2 µM
# [7] = The drug is tested on Z-024 corresponding to pig gut metagenome with ENA study accession number: PRJEB37062 and ENA sample accession number: ERS12561823 for biotransformation under anaerobic condition. The drug concentrations were measured over 9 timepoints collected between 0 and 24 hours of incubation by liquid-chromatography-coupled mass spectrometry (LC–MS); details: 2 µM
# [8] = The drug is tested on Z-010 corresponding to metagenome with ENA study accession number: PRJEB37062 and ENA sample accession number: ERS12561810 for biotransformation under anaerobic condition. The drug concentrations were measured over 9 timepoints collected between 0 and 24 hours of incubation by liquid-chromatography-coupled mass spectrometry (LC–MS); details: 2 µM
# [9] = The drug is tested on Z-011 corresponding to mouse gut metagenome with ENA study accession number: PRJEB37062 and ENA sample accession number: ERS12561811 for biotransformation under anaerobic condition. The drug concentrations were measured over 9 timepoints collected between 0 and 24 hours of incubation by liquid-chromatography-coupled mass spectrometry (LC–MS); details: 2 µM
# [10] = The drug is tested on WLS-077 corresponding to human gut metagenome with ENA study accession number: PRJEB37062 and ENA sample accession number: ERS12561750 for biotransformation under anaerobic condition. The drug concentrations were measured over 9 timepoints collected between 0 and 24 hours of incubation by liquid-chromatography-coupled mass spectrometry (LC–MS); details: 2 µM
# [11] = human gut metagenome, 24 h, 2 µM; remark: listed apart in the source
# [12] = The drug is tested on Z-009 corresponding to pig gut metagenome with ENA study accession number: PRJEB37062 and ENA sample accession number: ERS12561809 for biotransformation under anaerobic condition. The drug concentrations were measured over 9 timepoints collected between 0 and 24 hours of incubation by liquid-chromatography-coupled mass spectrometry (LC–MS); details: 2 µM
# [13] = human gut metagenome, 24 h, 2 µM; remark: listed apart in the source
# [14] = human gut metagenome, 24 h, 2 µM; remark: listed apart in the source
# [15] = The drug is tested on Z-006 corresponding to mouse gut metagenome with ENA study accession number: PRJEB37062 and ENA sample accession number: ERS12561806 for biotransformation under anaerobic condition. The drug concentrations were measured over 9 timepoints collected between 0 and 24 hours of incubation by liquid-chromatography-coupled mass spectrometry (LC–MS); details: 2 µM
# [16] = human gut metagenome, 24 h, 2 µM; remark: listed apart in the source
# [17] = The drug is tested on WLS-007 corresponding to human gut metagenome with ENA study accession number: PRJEB37062 and ENA sample accession number: ERS12561742 for biotransformation under anaerobic condition. The drug concentrations were measured over 9 timepoints collected between 0 and 24 hours of incubation by liquid-chromatography-coupled mass spectrometry (LC–MS); details: 2 µM
# [18] = The drug is tested on Z-007 corresponding to rat gut metagenome with ENA study accession number: PRJEB37062 and ENA sample accession number: ERS12561807 for biotransformation under anaerobic condition. The drug concentrations were measured over 9 timepoints collected between 0 and 24 hours of incubation by liquid-chromatography-coupled mass spectrometry (LC–MS); details: 2 µM
# [19] = The drug is tested on Z-008 corresponding to metagenome with ENA study accession number: PRJEB37062 and ENA sample accession number: ERS12561808 for biotransformation under anaerobic condition. The drug concentrations were measured over 9 timepoints collected between 0 and 24 hours of incubation by liquid-chromatography-coupled mass spectrometry (LC–MS); details: 2 µM
# [20] = human gut metagenome, 24 h, 2 µM; remark: listed apart in the source
# Note: call rule not given here.
Compound,Bacterial Biotransformation [1],Bacterial Biotransformation [2],Bacterial Biotransformation [3],Bacterial Biotransformation [4],Bacterial Biotransformation [5],Bacterial Biotransformation [6],Bacterial Biotransformation [7],Bacterial Biotransformation [8],Bacterial Biotransformation [9],Bacterial Biotransformation [10],Bacterial Biotransformation [11],Bacterial Biotransformation [12],Bacterial Biotransformation [13],Bacterial Biotransformation [14],Bacterial Biotransformation [15],Bacterial Biotransformation [16],Bacterial Biotransformation [17],Bacterial Biotransformation [18],Bacterial Biotransformation [19],Bacterial Biotransformation [20]
CC(C)c1c(CN(C)C(C)Cc2ccccc2)n(C)n(-c2ccccc2)c1=O (stereo not given) [FAMPROFAZONE],Compound metabolized,Compound metabolized,Compound metabolized,Compound metabolized,Compound metabolized,Compound metabolized,Compound metabolized,Compound metabolized,Compound metabolized,Compound metabolized,Compound metabolized,Compound metabolized,Compound metabolized,Compound metabolized,Compound metabolized,Compound metabolized,Compound metabolized,Compound metabolized,Compound metabolized,Compound metabolized
CN1CCC(=C2c3ccccc3CC(=O)c3sccc32)CC1.O=C(O)/C=C/C(=O)O [KETOTIFEN FUMARATE],Compound metabolized,Compound NOT metabolized,Compound metabolized,Compound metabolized,Compound NOT metabolized,Compound NOT metabolized,Compound NOT metabolized,Compound NOT metabolized,Compound NOT metabolized,Compound NOT metabolized,Compound metabolized,Compound metabolized,Compound NOT metabolized,Compound metabolized,Compound NOT metabolized,Compound metabolized,Compound metabolized,Compound NOT metabolized,Compound NOT metabolized,Compound NOT metabolized
C=CC[C@@H]1/C=C(\C)C[C@H](C)C[C@H](OC)[C@H]2O[C@@](O)(C(=O)C(=O)N3CCCC[C@H]3C(=O)O[C@H](/C(C)=C/[C@@H]3CC[C@@H](O)[C@H](OC)C3)[C@H](C)[C@@H](O)CC1=O)[C@H](C)C[C@@H]2OC.O [TACROLIMUS],Compound metabolized,Compound metabolized,Compound metabolized,Compound metabolized,Compound metabolized,Compound metabolized,Compound NOT metabolized,Compound NOT metabolized,Compound NOT metabolized,Compound metabolized,Compound metabolized,Compound NOT metabolized,Compound metabolized,Compound metabolized,Compound NOT metabolized,Compound metabolized,Compound NOT metabolized,Compound NOT metabolized,Compound NOT metabolized,Compound NOT metabolized
C#C[C@]1(OC(C)=O)CC[C@H]2[C@@H]3CCC4=C/C(=N/O)CC[C@@H]4[C@H]3CC[C@@]21CC [NORGESTIMATE],Compound metabolized,Compound NOT metabolized,Compound metabolized,Compound metabolized,Compound metabolized,Compound NOT metabolized,Compound NOT metabolized,Compound NOT metabolized,Compound NOT metabolized,Compound metabolized,Compound metabolized,Compound NOT metabolized,Compound NOT metabolized,Compound metabolized,Compound NOT metabolized,Compound metabolized,Compound metabolized,Compound NOT metabolized,Compound NOT metabolized,Compound NOT metabolized
CC[C@H](C)C(=O)O[C@H]1CCC=C2C=C[C@H](C)[C@H](CC[C@@H]3C[C@@H](O)CC(=O)O3)[C@H]21 [MEVASTATIN],Compound metabolized,Compound metabolized,Compound metabolized,Compound NOT metabolized,Compound metabolized,Compound NOT metabolized,Compound NOT metabolized,Compound NOT metabolized,Compound NOT metabolized,Compound NOT metabolized,Compound metabolized,Compound NOT metabolized,Compound NOT metabolized,Compound metabolized,Compound NOT metabolized,Compound metabolized,Compound NOT metabolized,Compound NOT metabolized,Compound NOT metabolized,Compound NOT metabolized
